pIC50, pKi: −log10 of the molar value. Calls of active or inactive are those of the source.
Tests used:
[1] = target: Acetylcholinesterase (Electrophorus electricus) (UniProt O42275); test: Inhibition of electric eel AChE at 20 uM using acetylthiocholine iodide as substrate preincubated with enzyme for 20 mins followed by substrate addition by Ellman's method relative to control
Cholinesterase [2] = target: T1, Cholinesterase (Equus caballus, UniProt P81908); test: Inhibition of equine serum BuChE using butyrylthiocholine iodide as substrate preincubated with enzyme for 20 mins followed by substrate addition by Ellman's method
[3] = target: Cholinesterase (Equus caballus) (UniProt P81908); test: Reversible inhibition of equine serum BChE at 0.4 to 1 uM using varying levels of butyrylcholine iodide as substrate
[4] = Octanol-PBS buffer partition coefficient, log P of the compound incubated for 24 hrs measured at pH 7.4 by shake-flask method; format: physicochemical
[5] = target: Cholinesterase (Equus caballus) (UniProt P81908); test: Mixed inhibition of equine serum BChE assessed as decrease in Vmax at 0.5 to 2 uM using varying levels of butyrylthiocholine iodide as substrate by Line weaver Burk reciprocal plot analysis
[6] = target: Cholinesterase (Equus caballus) (UniProt P81908); test: Mixed inhibition of equine serum BChE assessed as increase in substrate Km at 0.5 to 2 uM using varying levels of butyrylthiocholine iodide as substrate by Line weaver Burk reciprocal plot analysis
[7] = Cytotoxicity against human HepG2 cells assessed as cell viability at 5 to 50 uM measured after 24 hrs by MTT assay; format: cell-based; details: read-out: Activity
[8] = Cytotoxicity against rat PC12 cells assessed as cell viability at 5 to 50 uM measured after 24 hrs by MTT assay; format: cell-based, PC-12; details: read-out: Activity
PC-12 = test: Neuroprotective activity against H2O2-induced cytotoxicity in rat PC12 cells assessed as increase in cell viability at 10 to 25 uM pretreated for 3 hrs followed by H2O2 stimulation in continuous presence of compound for 24 hrs by MTT assay relative to control; format: functional
Cholinesterase [9] = target: T1, Cholinesterase; test: Inhibition of equine serum BChE using varying levels of butyrylthiocholine iodide as substrate by Line weaver Burk reciprocal plot analysis
Acetylcholinesterase = Acetylcholinesterase (Electrophorus electricus, UniProt O42275); test: Inhibition of electric eel AChE using acetylthiocholine iodide as substrate preincubated with enzyme for 20 mins followed by substrate addition by Ellman's method
[10] = target: Cholinesterase (Equus caballus) (UniProt P81908); test: Mixed inhibition of equine serum BChE assessed as decrease in Vmax at 1 to 5 uM using varying levels of butyrylthiocholine iodide as substrate by Line weaver Burk reciprocal plot analysis
[11] = target: Cholinesterase (Equus caballus) (UniProt P81908); test: Mixed inhibition of equine serum BChE assessed as increase in substrate Km at 1 to 5 uM using varying levels of butyrylthiocholine iodide as substrate by Line weaver Burk reciprocal plot analysis
[12] = target: Cholinesterase (Equus caballus) (UniProt P81908); test: Non-competitive inhibition of equine serum BChE at 1 to 5 uM using varying levels of butyrylcholine iodide as substrate by Line weaver Burk reciprocal plot analysis

Chain of Acetylcholinesterase (Electrophorus electricus) (O42275 24-633 limits assumed): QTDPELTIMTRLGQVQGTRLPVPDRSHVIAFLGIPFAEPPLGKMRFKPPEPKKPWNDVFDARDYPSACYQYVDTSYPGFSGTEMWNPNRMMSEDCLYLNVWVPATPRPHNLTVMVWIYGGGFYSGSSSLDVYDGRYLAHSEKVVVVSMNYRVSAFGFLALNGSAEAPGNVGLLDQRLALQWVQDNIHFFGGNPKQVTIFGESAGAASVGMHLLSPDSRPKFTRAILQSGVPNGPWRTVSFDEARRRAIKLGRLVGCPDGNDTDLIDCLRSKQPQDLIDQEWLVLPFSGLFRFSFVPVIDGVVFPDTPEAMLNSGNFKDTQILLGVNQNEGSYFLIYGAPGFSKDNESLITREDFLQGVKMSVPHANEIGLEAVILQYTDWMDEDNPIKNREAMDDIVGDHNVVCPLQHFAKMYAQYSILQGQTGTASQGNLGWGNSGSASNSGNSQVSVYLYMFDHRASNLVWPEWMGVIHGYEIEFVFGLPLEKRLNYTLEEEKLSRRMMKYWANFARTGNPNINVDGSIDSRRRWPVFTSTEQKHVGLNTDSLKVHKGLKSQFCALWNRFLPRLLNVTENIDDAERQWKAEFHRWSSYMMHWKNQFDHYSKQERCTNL
Chain of Cholinesterase (Equus caballus) (P81908 whole entry): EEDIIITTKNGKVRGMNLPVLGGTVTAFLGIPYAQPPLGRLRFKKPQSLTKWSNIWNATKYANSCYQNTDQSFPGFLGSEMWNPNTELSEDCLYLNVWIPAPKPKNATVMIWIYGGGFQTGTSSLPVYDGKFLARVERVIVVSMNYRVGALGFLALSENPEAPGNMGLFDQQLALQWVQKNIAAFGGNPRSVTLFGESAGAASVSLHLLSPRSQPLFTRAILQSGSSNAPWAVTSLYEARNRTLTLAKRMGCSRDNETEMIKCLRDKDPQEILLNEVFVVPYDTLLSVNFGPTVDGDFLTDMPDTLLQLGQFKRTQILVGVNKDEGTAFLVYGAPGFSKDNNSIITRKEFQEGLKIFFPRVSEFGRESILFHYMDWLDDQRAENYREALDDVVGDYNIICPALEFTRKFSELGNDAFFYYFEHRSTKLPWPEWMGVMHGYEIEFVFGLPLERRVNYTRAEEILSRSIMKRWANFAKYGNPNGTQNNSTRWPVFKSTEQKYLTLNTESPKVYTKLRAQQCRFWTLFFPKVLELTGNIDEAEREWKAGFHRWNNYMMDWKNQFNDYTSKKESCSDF
T1 sequence (P81908 whole entry): as above
Chain of Acetylcholinesterase (O42275 whole entry): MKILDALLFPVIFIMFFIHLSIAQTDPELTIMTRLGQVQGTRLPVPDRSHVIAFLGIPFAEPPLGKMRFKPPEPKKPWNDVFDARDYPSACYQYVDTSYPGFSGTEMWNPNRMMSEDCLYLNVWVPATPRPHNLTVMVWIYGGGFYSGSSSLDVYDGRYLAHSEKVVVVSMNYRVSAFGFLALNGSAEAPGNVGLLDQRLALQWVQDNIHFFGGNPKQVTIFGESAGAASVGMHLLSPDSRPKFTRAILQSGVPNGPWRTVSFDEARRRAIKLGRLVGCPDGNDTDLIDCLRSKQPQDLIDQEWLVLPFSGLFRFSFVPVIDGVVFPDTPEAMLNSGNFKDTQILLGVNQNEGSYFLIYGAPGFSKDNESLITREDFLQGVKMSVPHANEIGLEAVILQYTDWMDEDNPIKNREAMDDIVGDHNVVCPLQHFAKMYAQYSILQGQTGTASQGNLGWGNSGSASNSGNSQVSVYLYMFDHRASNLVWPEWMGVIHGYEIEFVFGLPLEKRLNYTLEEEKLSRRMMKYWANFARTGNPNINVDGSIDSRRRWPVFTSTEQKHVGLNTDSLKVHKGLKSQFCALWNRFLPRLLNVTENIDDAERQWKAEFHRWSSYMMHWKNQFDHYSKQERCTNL

In the case of `O=S1(=O)CCc2c(C3CC3)nn(-c3ccccc3F)c2O1`, the inhibition [1] was “inactive”, the pIC50 (Cholinesterase [2]) was 6.70 and the inhibition [3] was “Active”. It also gave a logD at 24 h [4] of 2.09.

In the case of `COc1ccc(-c2nn(-c3ccccc3F)c3c2CCS(=O)(=O)O3)cc1`, the inhibition [1] was “inactive”, the pIC50 (Cholinesterase [2]) was 6.34 and the inhibition [5] was “Active”. For the same molecule, the inhibition [6] was “Active”, the inhibition [3] was “Active” and the logD at 24 h [4] was 2.62. For the same molecule, the viability at 24 h, 50 µM [7] was greater than 90%, the viability at 24 h, up to 50 µM [8] was greater than 90% and the Activity (PC-12) was greater than 70%. The pKi (Cholinesterase [9]) was 6.84.

In the case of `Cc1nn(-c2ccccc2)c2c1C(/C=C/c1cccc(C#N)c1)CS(=O)(=O)O2` (configuration not stated), the pIC50 (Acetylcholinesterase) was 4.79 and the pIC50 (Cholinesterase [2]) was 4.97.

In the case of `O=S1(=O)CC(c2cccc(F)c2)c2c(C3CC3)nn(-c3ccccc3F)c2O1` (configuration not stated), the inhibition [1] was “inactive”, the pIC50 (Cholinesterase [2]) was 5.40 and the logD at 24 h [4] was 2.86.

In the case of `O=S1(=O)CC(c2ccc(F)cc2)c2c(C3CC3)nn(-c3ccccc3Cl)c2O1` (configuration not stated), the inhibition [1] was “inactive”, the pIC50 (Cholinesterase [2]) was 5.22 and the logD at 24 h [4] was 2.04.

For `O=S1(=O)CC(c2ccc(F)cc2)c2c(C3CC3)nn(-c3ccccc3F)c2O1` (configuration not stated), the inhibition [1] was “inactive”, the pIC50 (Cholinesterase [2]) was 5.11 and the logD at 24 h [4] was 1.76.

Work on `CC1=NN2C(=O)Oc3c(Cl)cc(Cl)cc3C2C1` (configuration not stated) yielded a pIC50 (Acetylcholinesterase) of less than 4.70.

With `COc1ccc(-c2nn(-c3ccccc3Cl)c3c2CCS(=O)(=O)O3)cc1` the inhibition [1] was “inactive”, the pIC50 (Cholinesterase [2]) was 6.38 and the inhibition [10] was “Active”. For the same molecule, the inhibition [11] was “Active”, the inhibition [12] was “Active” and the logD at 24 h [4] was 3.04. For the same molecule, the viability at 24 h, 50 µM [7] was greater than 90%, the viability at 24 h, up to 50 µM [8] was greater than 90% and the Activity (PC-12) was greater than 70%. It also gave a pKi (Cholinesterase [9]) of 7.22.

In the case of `Cc1nn(-c2ccccc2F)c2c1CCS(=O)(=O)O2`, the inhibition [1] was “inactive”, the pIC50 (Cholinesterase [2]) was 5.74 and the logD at 24 h [4] was 1.86.

With `COc1cccc(C2CS(=O)(=O)Oc3c2c(C2CC2)nn3-c2ccccc2F)c1` (configuration not stated) the inhibition [1] was “inactive”, the pIC50 (Cholinesterase [2]) was 5.46 and the logD at 24 h [4] was 2.01.

Reference: ChEMBL document CHEMBL4406826, “Discovery of δ-sultone-fused pyrazoles for treating Alzheimer's disease: Design, synthesis, biological evaluation and SAR studies” (Eur J Med Chem, 2019)
